Assays:
S. aureus [1] = experiment: RIND XXIX reduction solution assay, Δ fluorescence; format: cell-based, Staphylococcus aureus; details: S. aureus (gram +) about 5×10^7 cells/ml, tyrocidin 3.3 mg/ml, 37° C.
Description: (§1) Bacterial suspensions were prepared by growing the cells in BHT broth to stationary phase overnight at 37° C. P. auruginosa was grown with agitation. About 40 ml of each overnight culture was centrifuged, decanted and washed once with 0.05 molar potassium phosphate buffer or 0.05 molar N-2-hydroxy-ethylpiperazine-N'-2-ethanesulfonic acid (HEPES) buffer, pH 7.8, and resuspended in buffer.
(§2) Dispersions containing RIND compounds were prepared by dissolving the RIND compound in N,N-dimethylformamide (DMF) at 16 mg compound per ml of solvent. An aliquot (250 μl) of the resulting solution was added to 500 μl of TRITON X-100 surfactant. This mixture was then added dropwise with stirring to 25 ml of 0.05 molar HEPES buffer. A dispersion of RIND XXIX was prepared similarly except that DMF was acidified with 0.1% sulfuric acid. […]
(§3) The solutions were incubated at 37° C. for 30 minutes, and the change in fluorescence emission (Δ fluorescence) was determined as the difference between the readings taken when the solutions were first mixed and then after 30 minutes incubation. Measurements were made in a commercially available MICROFLUOR Reader (available from Dynatech Laboratories, Alexandria, Virginia, U.S.A.), modified with an excitation filter at 540 nm, an emission filter at 620 nm and a Xenon lamp.

S. faecalis [2] = experiment: RIND XXIX reduction solution assay, Δ fluorescence; format: cell-based, Streptococcus faecalis; details: S. faecalis (gram +) about 5×10^7 cells/ml, tyrocidin 3.3 mg/ml, 37° C.
Description: as §1, §2, §3

E. cloacae [3] = experiment: RIND XXIX reduction solution assay, Δ fluorescence; format: cell-based, Enterobacter cloacae; details: E. cloacae (gram -) about 5×10^7 cells/ml, tyrocidin 3.3 mg/ml, 37° C.
Description: as §1
(§4) Dispersions containing RIND compounds were prepared by dissolving the RIND compound in N,N-dimethylformamide (DMF) at 16 mg compound per ml of solvent. An aliquot (250 μl) of the resulting solution was added to 500 μl of TRITON X-100 surfactant. This mixture was then added dropwise with stirring to 25 ml of 0.05 molar HEPES buffer. A dispersion of RIND XXIX was prepared similarly except that DMF was acidified with 0.1% sulfuric acid. Compositions containing water-compatible RIND compounds were prepared as described above except the surfactant was omitted.
(§5) Each test solution contained the following: dispersion of RIND XXIX (25 μl) prepared as described above, glucose (400 μl of 10% aqueous solution), tryptose (400 μl of 10% aqueous solution), trimethyl-1,4-benzoquinone ETA (500 μl of 1.5 mg/ml methanol). Aliquots (200 μl) of the mixture were mixed with solutions of the antibiotics (50 μl). The cell suspensions (50 μl) were then added. The final concentration of gramcidin S and tyrocidin were 0.1 mg/ml and 3.3 mg/ml, respectively. The final cell concentration was about 5×10^7 cells/ml. Cell control solutions contained all reagents except antibiotics. Background controls consisted of both buffer and solution controls. […]
as §3, with “lamp. […]” for “lamp.”

E. coli [4] = experiment: RIND XXIX reduction solution assay, Δ fluorescence; format: cell-based, Escherichia coli; details: E. coli (gram -) about 5×10^7 cells/ml, tyrocidin 3.3 mg/ml, 37° C.
Description: as §1, §4, §5
as §3, with “lamp. […]” for “lamp.”

K. pneumoniae [5] = experiment: RIND XXIX reduction solution assay, Δ fluorescence; format: cell-based, Klebsiella pneumoniae; details: K. pneumoniae (gram -) about 5×10^7 cells/ml, tyrocidin 3.3 mg/ml, 37° C.
Description: as §1, §4, §5
as §3, with “lamp. […]” for “lamp.”

P. vulgaris [6] = experiment: RIND XXIX reduction solution assay, Δ fluorescence; format: cell-based, Proteus vulgaris; details: P. vulgaris (gram -) about 5×10^7 cells/ml, tyrocidin 3.3 mg/ml, 37° C.
Description: as §1, §4, §5
as §3, with “lamp. […]” for “lamp.”

P. aeruginosa [7] = experiment: RIND XXIX reduction solution assay, Δ fluorescence; format: cell-based, Pseudomonas aeruginosa; details: P. aeruginosa (gram -) about 5×10^7 cells/ml, tyrocidin 3.3 mg/ml, 37° C.
Description: as §1, §4, §5
as §3, with “lamp. […]” for “lamp.”

S. aureus [8] = experiment: MTT reduction solution assay, ΔOD 540 nm; format: cell-based, Staphylococcus aureus; details: S. aureus (+) 5×10^7, tyrocidin 0.825 mg/ml, 37° C.
Description: (§6) These examples illustrate the differentiation of bacteria using a tetrazolium salt and phenolic dye as the reducible compounds and two cyclic polypeptide antibiotics according to the present invention. The tetrazolium salt was 3-(4,5-dimethyl-2-thiazolyl) -2,5-diphenyl-2H-tetrazolium bromide (MTT) which forms a colored formazan dye when reduced. The phenolic dye was 2,6-dichloroindophenol (DCIP) which forms a colorless species when reduced.
(§7) Solutions of the reducible compounds were prepared with the following: HEPES buffer (3 ml, 0.05 molar, pH 7.5), TRITON X-100 nonionic surfactant (1% concentration), glucose (50 μl of 10% in water), tryptose (50 μl of a 10% solution in water), MTT (25 μl of 5 mg/ml methanol) or DCIP (25 μl of 3 mg/ml methanol) and phenazine methosultate ETA (25 μl of 3 mg/ml methanol).
(§8) Test solutions were prepared from the following: reducible compound solution from above (200 μl), 50 μl of either gramicidin S solution (6 mg/ml methanol and 9 ml of buffer) or tyrocidin solution (100 mg/ml methanol and 8 ml of buffer) and 50 μl of cell suspension. […] The change in optical density (ΔOD) was determined after 30 minutes at 37° C. at 540 nm for the MTT assay and at 620 nm for the DCIP assay using a commercially available spectrophotometer.

S. faecalis [9] = experiment: MTT reduction solution assay, ΔOD 540 nm; format: cell-based, Streptococcus faecalis; details: S. faecalis (+) 5×10^7, tyrocidin 0.825 mg/ml, 37° C.
Description: as §6, §7, §8

E. cloacae [10] = experiment: MTT reduction solution assay, ΔOD 540 nm; format: cell-based, Enterobacter cloacae; details: E. cloacae (-) 5×10^7, tyrocidin 0.825 mg/ml, 37° C.
Description: as §6, §7, §8

E. coli [11] = experiment: MTT reduction solution assay, ΔOD 540 nm; format: cell-based, Escherichia coli; details: E. coli (-) 5×10^7, tyrocidin 0.825 mg/ml, 37° C.
Description: as §6, §7, §8

K. pneumoniae [12] = experiment: MTT reduction solution assay, ΔOD 540 nm; format: cell-based, Klebsiella pneumoniae; details: K. pneumoniae (-) 5×10^7, tyrocidin 0.825 mg/ml, 37° C.
Description: as §6, §7, §8

P. vulgaris [13] = experiment: MTT reduction solution assay, ΔOD 540 nm; format: cell-based, Proteus vulgaris; details: P. vulgaris (-) 5×10^7, tyrocidin 0.825 mg/ml, 37° C.
Description: as §6, §7, §8

P. aeruginosa [14] = experiment: MTT reduction solution assay, ΔOD 540 nm; format: cell-based, Pseudomonas aeruginosa; details: P. aeruginosa (-) 5×10^7, tyrocidin 0.825 mg/ml, 37° C.
Description: as §6, §7, §8

S. aureus [15] = experiment: DCIP reduction solution assay, ΔOD 620 nm; format: cell-based, Staphylococcus aureus; details: S. aureus (+) 5×10^7, tyrocidin 0.825 mg/ml, 37° C.
Description: as §6, §7, §8

S. faecalis [16] = experiment: DCIP reduction solution assay, ΔOD 620 nm; format: cell-based, Streptococcus faecalis; details: S. faecalis (+) 5×10^7, tyrocidin 0.825 mg/ml, 37° C.
Description: as §6, §7, §8

E. cloacae [17] = experiment: DCIP reduction solution assay, ΔOD 620 nm; format: cell-based, Enterobacter cloacae; details: E. cloacae (-) 5×10^7, tyrocidin 0.825 mg/ml, 37° C.
Description: as §6, §7, §8

E. coli [18] = experiment: DCIP reduction solution assay, ΔOD 620 nm; format: cell-based, Escherichia coli; details: E. coli (-) 5×10^7, tyrocidin 0.825 mg/ml, 37° C.
Description: as §6, §7, §8

K. pneumoniae [19] = experiment: DCIP reduction solution assay, ΔOD 620 nm; format: cell-based, Klebsiella pneumoniae; details: K. pneumoniae (-) 5×10^7, tyrocidin 0.825 mg/ml, 37° C.
Description: as §6, §7, §8

P. vulgaris [20] = experiment: DCIP reduction solution assay, ΔOD 620 nm; format: cell-based, Proteus vulgaris; details: P. vulgaris (-) 5×10^7, tyrocidin 0.825 mg/ml, 37° C.
Description: as §6, §7, §8

P. aeruginosa [21] = experiment: DCIP reduction solution assay, ΔOD 620 nm; format: cell-based, Pseudomonas aeruginosa; details: P. aeruginosa (-) 5×10^7, tyrocidin 0.825 mg/ml, 37° C.
Description: as §6, §7, §8

[22] = system: viable gram-positive and gram-negative bacteria; experiment: Differentiation in RIND XXIX solution assays, overall result; format: cell-based; details: gramicidin S 0.1 mg/ml, tyrocidin 3.3 mg/ml
Description: Each test solution contained the following: dispersion of RIND XXIX (25 μl) prepared as described above, glucose (400 μl of 10% aqueous solution), tryptose (400 μl of 10% aqueous solution), trimethyl-1,4-benzoquinone ETA (500 μl of 1.5 mg/ml methanol). Aliquots (200 μl) of the mixture were mixed with solutions of the antibiotics (50 μl). The cell suspensions (50 μl) were then added. The final concentration of gramcidin S and tyrocidin were 0.1 mg/ml and 3.3 mg/ml, respectively. The final cell concentration was about 5×10^7 cells/ml. Cell control solutions contained all reagents except antibiotics. Background controls consisted of both buffer and solution controls. The buffer control contained all reagents except antibiotics and cells. The solution control contained all reagents except cells.
as §3
This example illustrates the practice of this invention to identify a Proteus species in solution. Test solutions and cell control solutions were prepared and tested as described in Example 2 and 3 except that polymixin B was used at 0.01 mg/ml of methanol. The final cell concentration was about 5×10^7 cells/ml.

S. aureus [23] = experiment: Inhibition of RIND IX reduction by various cyclic polypeptide antibiotics; format: cell-based, Staphylococcus aureus; details: Test Method 1 (antibiotic in the test solution), S. aureus about 4.3×10^8 cells/ml, 100 μl of 1 mg/ml antibiotic solution, 30 minutes at 37° C., 635 nm
Description: The following materials were used in this example: stock solutions of RIND IX compound dispersion prepared as described above, glucose (10% in water), trimethyl-1,4-benzoquinone ETA (1.5 mg/ml methanol), and the antibiotics (1 mg/ml in dimethylsulfoxide). S. aureus cells were grown as described above. The final cell concentration in the assay mixture was about 4.3×10^8 cells/ml.
Test solutions were prepared by adding in the order: 1.2 ml of HEPES buffer, 50 μl glucose solution, 1.5 ml of RIND IX dispersion, 100 μl of antibiotic solution, 100 μl of cell suspension and 25 μl of ETA solution. Control solutions were prepared as described in Examples 2 and 3. Optical density readings (OD) were measured at 635 nm at 0 minutes and after incubation at 37° C. for 30 minutes for test and control solutions, and the change in density (ΔOD) was determined. Table VI below lists the results, expressed as corrected percent inhibition of the reduction of the RIND compound. The corrected percent inhibition is calculated by dividing the difference between the ΔOD obtained from the Cell Control without antibiotic and the ΔOD of the test solution, by ΔOD of the Cell Control without antibiotic. All readings were corrected by subtracting readings of the appropriate background Controls.
Solutions containing 2.9 ml HEPES, 50 μl of the antibiotic solution and 100 μl cell solution were incubated at 37° C. for 30 minutes, centrifuged for 10 minutes and decanted. The resulting pellet was then treated with 1.4 ml HEPES, 50 μl glucose solution, 1.5 ml RIND IX dispersion and 25 μl ETA solution, mixed well and the densities recorded as described above in Method 1. The corrected percent inhibition data was calculated as described in Method 1 above.

For tyrocidin, the “Δ Fluorescence (30 Minutes)” value (S. aureus [1]) was 1834, the “Δ Fluorescence (30 Minutes)” value (S. faecalis [2]) was 0880 and the “Δ Fluorescence (30 Minutes)” value (E. cloacae [3]) was over 4000. The “Δ Fluorescence (30 Minutes)” value (E. coli [4]) was over 4000, the “Δ Fluorescence (30 Minutes)” value (K. pneumoniae [5]) was over 4000 and the “Δ Fluorescence (30 Minutes)” value (P. vulgaris [6]) was over 4000. For the same molecule, the “Δ Fluorescence (30 Minutes)” value (P. aeruginosa [7]) was over 4000, the “ΔOD, 540 nm after 30 Minutes” value (S. aureus [8]) was 0.113 and the “ΔOD, 540 nm after 30 Minutes” value (S. faecalis [9]) was 0.048. For the same molecule, the “ΔOD, 540 nm after 30 Minutes” value (E. cloacae [10]) was 0.748, the “ΔOD, 540 nm after 30 Minutes” value (E. coli [11]) was 1.207 and the “ΔOD, 540 nm after 30 Minutes” value (K. pneumoniae [12]) was 0.842. For the same molecule, the “ΔOD, 540 nm after 30 Minutes” value (P. vulgaris [13]) was 0.778, the “ΔOD, 540 nm after 30 Minutes” value (P. aeruginosa [14]) was 0.692 and the “ΔOD, 620 nm after 30 Minutes” value (S. aureus [15]) was 0.074. For the same molecule, the “ΔOD, 620 nm after 30 Minutes” value (S. faecalis [16]) was 0.048, the “ΔOD, 620 nm after 30 Minutes” value (E. cloacae [17]) was 0.999 and the “ΔOD, 620 nm after 30 Minutes” value (E. coli [18]) was 1.054. For the same molecule, the “ΔOD, 620 nm after 30 Minutes” value (K. pneumoniae [19]) was 0.819, the “ΔOD, 620 nm after 30 Minutes” value (P. vulgaris [20]) was 0.941 and the “ΔOD, 620 nm after 30 Minutes” value (P. aeruginosa [21]) was 0.983. For the same molecule, the “differentiation between viable gram-positive and gram-negative bacteria, in words” value [22] was “can be used with RIND XXIX to differentiate between viable gram-positive and gram-negative bacteria”.

`CN[C@H](CC(C)C)C(=O)N[C@H]1C(=O)N[C@@H](CC(N)=O)C(=O)N[C@H]2C(=O)N[C@H]3C(=O)N[C@H](C(=O)N[C@H](C(=O)O)c4cc(O)cc(O)c4-c4cc3ccc4O)[C@H](O)c3ccc(c(Cl)c3)Oc3cc2cc(c3O[C@@H]2O[C@H](CO)[C@@H](O)[C@H](O)[C@H]2O[C@H]2C[C@](C)(N)[C@H](O)[C@H](C)O2)Oc2ccc(cc2Cl)[C@H]1O` [Vancomycin, vancomycin] was tested, and the “Corrected % Inhibition” value (S. aureus [23]) was “No Inhibition”.

For ristocetin, the “Corrected % Inhibition” value (S. aureus [23]) was “No Inhibition”.

Source: patent publication US4912036A, “Rapid differentiation of bacteria using cyclic polypeptide antibiotics” (Eastman Kodak Company, priority 1986, dated 1990)
